Data from ChEMBL document CHEMBL3877324, “Synthesis of new spirooxindole-pyrrolothiazole derivatives: Anti-cancer activity and molecular docking” (Bioorg Med Chem, 2017).

What was measured:
[1] = Growth inhibition of human K562 cells after 48 hrs by WST1 assay; type: functional, cell-based; settings: K562, 48 h
[2] = Growth inhibition of human MCF7 cells after 48 hrs by WST1 assay; type: functional, cell-based; settings: MCF7, 48 h
[3] = tested on: MCF7; assay: Induction of apoptosis in human MCF7 cells at 10 uM after 48 hrs by Annexin-V FITC/propidium iodide staining based flow cytometry relative to control; type: functional

Compound: O=C1Nc2ccccc2[C@]12N1CSC[C@H]1[C@H](c1ccc(Cl)cc1)[C@]21CCC/C(=C\c2ccc(Cl)cc2)C1=O
- IC50 [1]: 24 µM
- IC50 [2]: 49.1 µM

Compound: Cc1cccc(/C=C2\CCC[C@@]3(C2=O)[C@@H](c2cccc(C)c2)[C@@H]2CSCN2[C@@]32C(=O)Nc3ccccc32)c1
- IC50 [1]: 30.7 µM
- IC50 [2]: 28.1 µM

Compound: O=C1Nc2ccccc2[C@]12N1CSC[C@H]1[C@H](c1ccc(Br)cc1)[C@]21CCC/C(=C\c2ccc(Br)cc2)C1=O
- IC50 [1]: 14.7 µM
- fold change (FC) [3]: 2
- IC50 [2]: 15.3 µM

Compound: COc1ccc(/C=C2\CCC[C@@]3(C2=O)[C@@H](c2ccc(OC)cc2)[C@@H]2CSCN2[C@@]32C(=O)Nc3ccccc32)cc1
- IC50 [1]: 19.5 µM
- IC50 [2]: 24.4 µM

Compound: O=C1Nc2ccccc2[C@]12N1CSC[C@H]1[C@H](c1cccc(F)c1)[C@]21CCC/C(=C\c2cccc(F)c2)C1=O
- IC50 [1]: 15.7 µM
- IC50 [2]: 145 µM

Compound: O=C1Nc2ccccc2[C@]12N1CSC[C@H]1[C@H](c1ccccc1)[C@]21CCC/C(=C\c2ccccc2)C1=O
- IC50 [1]: 16.6 µM
- IC50 [2]: 26.8 µM

Compound: O=C1Nc2ccccc2[C@]12N1CSC[C@H]1[C@H](c1cccc([N+](=O)[O-])c1)[C@]21CCC/C(=C\c2cccc([N+](=O)[O-])c2)C1=O
- IC50 [1]: 27.6 µM
- IC50 [2]: 25.8 µM

Compound: O=C1Nc2ccccc2[C@]12N1CSC[C@H]1[C@H](c1cccc(Br)c1)[C@]21CCC/C(=C\c2cccc(Br)c2)C1=O
- IC50 [1]: 22.2 µM
- IC50 [2]: 34.8 µM

Compound: Cc1ccc(/C=C2\CCC[C@@]3(C2=O)[C@@H](c2ccc(C)cc2)[C@@H]2CSCN2[C@@]32C(=O)Nc3ccccc32)cc1
- IC50 [1]: 38.1 µM
- IC50 [2]: 43.1 µM

Compound: O=C1Nc2ccccc2[C@]12N1CSC[C@H]1[C@H](c1ccc(C(F)(F)F)cc1)[C@]21CCC/C(=C\c2ccc(C(F)(F)F)cc2)C1=O
- IC50 [1]: 33.2 µM
- IC50 [2]: 49.4 µM

Compound: O=C1Nc2ccccc2[C@]12N1CSC[C@H]1C(c1ccc(Cl)cc1Cl)[C@]21CCC/C(=C\c2ccc(Cl)cc2Cl)C1=O (single isomer, unassigned)
- IC50 [1]: 19.5 µM
- IC50 [2]: 26.1 µM

Compound: O=c1[nH]cc(F)c(=O)[nH]1 [FLUOROURACIL]
- IC50 [2]: 78.3 µM
